According to patent US20130060013A1, “Compounds useful for treating neurodegenerative disorders” (SATORI PHARMACEUTICALS, INC., priority 2011, published 2013):

Tests used:
[1] = test system: Aβ-38; test: Aβ-38 level in conditioned media of 2B7 cells (MSD 3-PLEX ELISA); format: cell-based; details: Homo sapiens, compound 5 hours at 37° C., 1% DMSO, percent vehicle fit to 4 parameter curve
Description: (§1) Assays were conducted to determine the ability of a Compound of Formula I to modulate […], and Aβ-38.
(§2) Plates with capture antibodies were blocked for 1-2 hours at room temperature with 150 μL of the manufactures blocking reagent.
(§3) Cultured 2B7 cells in 96 well plate with 250 uL of media per well until confluent;
(§4) Prepared serial dilutions of compounds in DMSO at 100× the final desired concentration;
(§5) Washed wells with 2B7 cells 1× with 250 uL of media;
(§6) Diluted DMSO stocks 1:100 into media:
(§7) Added 250 μL of media containing compounds (1% DMSO) to wells with 2B7 cells for 5 hours at 37° C.
(§8) Diluted conditioned media: 1 part media with 1% DMSO and 1 part blocking buffer;
(§9) 150 μL of the 250 μL of conditioned media were used.
(§10) Standard Curve Sample Prep:
(§11) Prepared per manufacturer's protocol (see above)
(§12) Seven point standard curve samples were prepared that contained Aβ-42, Aβ-40, and Aβ-38. The highest concentration of Aβ-42 and Aβ-38 was 3,000 pg/mL and the highest concentration of Aβ-40 was 10,000 pg/mL. Subsequent serial dilutions were 1:3 and the final composition of each sample was 1 part blocking buffer and 1 part cell medium containing 1% DMSO.
(§13) Overnight Sample Incubation:
(§14) Blocked plates are washed 5× with MSD wash buffer with a plate washer
(§15) 25 uL of detection antibody and blocker G reagent in MSD blocking solution is added
(§16) 25 uL of samples (1 part conditioned media containing 1% DMSO and 1 part MSD blocking buffer) are then added.
(§17) plates are incubated overnight at 4 degrees C. or 2 hours at room temp
(§18) Wash wells 5× with MSD wash buffer
(§19) Added 150 μL 2×MSD read buffer
(§20) A-Beta peptide levels for each peptide are calculated from the standard curve using the MSD software provided with the MSD 2400 Imager. Percent vehicle values for each compound dosage were then calculated and fit to a 4 parameter curve generating IC50 values.

[2] = test system: Aβ-42; test: Aβ-42 level in conditioned media of 2B7 cells (MSD 3-PLEX ELISA); format: cell-based; details: Homo sapiens, compound 5 hours at 37° C., 1% DMSO, percent vehicle fit to 4 parameter curve
Description: as §1, §2, §3, §4, §5, §6, §7, §8, §9, §10, §11, §12, §13, §14, §15, §16, §17, §18, §19, §20

CC(C)[C@@H](OC(=O)N1CCC1)[C@H]1C[C@@H](C)[C@H]2[C@H](O1)[C@H](O)[C@@]1(C)[C@@H]3CC[C@H]4C(C)(C)[C@@H](O[C@H]5CN(C(=O)CNS(=O)(=O)C(F)(F)F)CCO5)CCC45C[C@@]35CC[C@]21C (stereo partly shown)
IC50 [1]: < 1000 nM
IC50 [2]: 1000 to 10000 nM

CO[C@@H]([C@H]1C[C@@H](C)[C@H]2[C@H](O1)[C@H](O)[C@@]1(C)[C@@H]3CC[C@H]4C(C)(C)[C@@H](O[C@H]5CN(C6(C)COC6)CCO5)CCC45C[C@@]35CC[C@]21C)C(C)(C)O (stereo partly shown)
IC50 [1]: 1000 to 10000 nM
IC50 [2]: 1000 to 10000 nM

CCO[C@@H]([C@H]1C[C@@H](C)[C@H]2[C@H](O1)[C@H](O)[C@@]1(C)[C@@H]3CC[C@H]4C(C)(C)[C@@H](O[C@H]5CN([C@H](C)C(=O)N(C)C)CCO5)CCC45C[C@@]35CC[C@]21C)C(C)(C)O (stereo partly shown)
IC50 [1]: < 1000 nM
IC50 [2]: < 1000 nM

CCO[C@@H]([C@H]1C[C@@H](C)[C@H]2[C@H](O1)[C@H](O)[C@]1(C)[C@@H]3CC[C@H]4C(C)(C)[C@@H](O[C@H]5CN([C@H](C)C(=O)N6CCC6)CCO5)CC[C@@]45C[C@@]35CC[C@@]21C)C(C)(C)O
IC50 [1]: < 1000 nM
IC50 [2]: < 1000 nM

CCO[C@@H]([C@@H]1C[C@H]2[C@H]([C@H](C)C1)[C@@]1(C)CCC34C[C@@]35CC[C@H](O[C@H]3CN([C@@H](C)C(=O)N(C)C)CCO3)C(C)(C)[C@@H]5CC[C@H]4[C@]1(C)[C@H]2O)C(C)(C)O (stereo partly shown)
IC50 [2]: < 1000 nM

CCO[C@@H]([C@H]1C[C@@H](C)[C@H]2[C@H](O1)[C@H](O)[C@]1(C)[C@@H]3CC[C@H]4C(C)(C)[C@@H](O[C@H]5CN([C@H](C)CN6CCC6)CCO5)CC[C@@]45C[C@@]35CC[C@@]21C)C(C)(C)O
IC50 [1]: < 1000 nM
IC50 [2]: < 1000 nM

CO[C@@H](C1C[C@@H](C)[C@H]2C(O1)[C@H](O)[C@@]1(C)C3CC[C@H]4C(C)(C)[C@@H](O[C@H]5CN(CCN6CCC6)CCO5)CCC45C[C@@]35CC[C@]21C)C(C)(C)O (stereo partly shown)
IC50 [2]: < 1000 nM

CO[C@@H]([C@H]1C[C@@H](C)[C@H]2[C@H](O1)[C@H](O)[C@@]1(C)[C@@H]3CC[C@H]4C(C)(C)[C@@H](O[C@H]5CNCCO5)CCC45C[C@@]35CC[C@]21C)C(C)(C)OC (stereo partly shown)
IC50 [1]: < 1000 nM
IC50 [2]: < 1000 nM

CCO[C@@H]([C@H]1C[C@@H](C)[C@H]2[C@H](O1)[C@H](O)[C@@]1(C)[C@@H]3CC[C@H]4C(C)(C)[C@@H](O[C@H]5CNCCO5)CCC45C[C@@]35CC[C@]21C)C(C)(C)OCC (stereo partly shown)
IC50 [1]: 1000 to 10000 nM
IC50 [2]: 1000 to 10000 nM

CCO[C@@H](C1C[C@@H](C)[C@H]2C(O1)[C@H](O)[C@@]1(C)C3CC[C@H]4C(C)(C)[C@@H](O[C@H]5CN(Cc6ncco6)CCO5)CCC45C[C@@]35CC[C@]21C)C(C)(C)O (stereo partly shown)
IC50 [1]: 1000 to 10000 nM
IC50 [2]: < 1000 nM

CCO[C@@H](C1C[C@@H](C)[C@H]2C(O1)[C@H](O)[C@@]1(C)C3CC[C@H]4C(C)(C)[C@@H](O[C@H]5CN(c6ncc(F)cn6)CCO5)CCC45C[C@@]35CC[C@]21C)C(C)(C)O (stereo partly shown)
IC50 [1]: 1000 to 10000 nM
IC50 [2]: 1000 to 10000 nM

CCO[C@@H]([C@H]1C[C@@H](C)[C@H]2[C@H](O1)[C@H](O)[C@@]1(C)[C@@H]3CC[C@H]4C(C)(C)[C@@H](O[C@H]5CN(Cc6nccn6C)CCO5)CCC45C[C@@]35CC[C@]21C)C(C)(C)O (stereo partly shown)
IC50 [1]: 1000 to 10000 nM
IC50 [2]: < 1000 nM

CCO[C@@H]([C@H]1C[C@@H](C)[C@H]2[C@H](O1)[C@H](O)[C@@]1(C)[C@@H]3CC[C@H]4C(C)(C)[C@@H](O[C@H]5CN(CC(F)(F)F)CCO5)CCC45C[C@@]35CC[C@]21C)C(C)(C)O (stereo partly shown)
IC50 [1]: 1000 to 10000 nM
IC50 [2]: 1000 to 10000 nM

CCO[C@@H]([C@H]1C[C@@H](C)[C@H]2[C@H](O1)[C@H](O)[C@@]1(C)[C@@H]3CC[C@H]4C(C)(C)[C@@H](O[C@H]5CN(c6ncccn6)CCO5)CCC45C[C@@]35CC[C@]21C)C(C)(C)O (stereo partly shown)
IC50 [1]: 1000 to 10000 nM
IC50 [2]: 1000 to 10000 nM

CCO[C@@H]([C@H]1C[C@@H](C)[C@H]2[C@H](O1)[C@H](O)[C@@]1(C)[C@@H]3CC[C@H]4C(C)(C)[C@@H](O[C@H]5CN(CC(F)F)CCO5)CCC45C[C@@]35CC[C@]21C)C(C)(C)O (stereo partly shown)
IC50 [1]: 1000 to 10000 nM
IC50 [2]: < 1000 nM

CCO[C@@H]([C@H]1C[C@@H](C)[C@H]2[C@H](O1)[C@H](O)[C@@]1(C)[C@@H]3CC[C@H]4C(C)(C)[C@@H](OC(=O)C5CN(C6COC6)C5)CCC45C[C@@]35CC[C@]21C)C(C)(C)O (stereo partly shown)
IC50 [1]: 1000 to 10000 nM
IC50 [2]: < 1000 nM

CCO[C@@H]([C@H]1C[C@@H](C)[C@H]2[C@H](O1)[C@H](O)[C@@]1(C)[C@@H]3CC[C@H]4C(C)(C)[C@@H](OC(=O)[C@H]5CN(C)CCO5)CCC45C[C@@]35CC[C@]21C)C(C)(C)O (stereo partly shown)
IC50 [1]: 1000 to 10000 nM
IC50 [2]: < 1000 nM

CCO[C@@H]([C@H]1C[C@@H](C)[C@H]2[C@H](O1)[C@H](O)[C@@]1(C)[C@@H]3CC[C@H]4C(C)(C)[C@@H](OC(=O)[C@@H]5CN(C)CCO5)CC[C@@]45C[C@@]35CC[C@]21C)C(C)(C)O
IC50 [1]: 1000 to 10000 nM
IC50 [2]: < 1000 nM

CCO[C@@H]([C@H]1C[C@@H](C)[C@H]2[C@H](O1)[C@H](O)[C@@]1(C)[C@@H]3CC[C@H]4C(C)(C)[C@@H](OC(=O)[C@@H]5CCCN5C(=O)OC(C)(C)C)CCC45C[C@@]35CC[C@]21C)C(C)(C)O (stereo partly shown)
IC50 [1]: 1000 to 10000 nM
IC50 [2]: 1000 to 10000 nM

CCO[C@@H]([C@H]1C[C@@H](C)[C@H]2[C@H](O1)[C@H](O)[C@@]1(C)[C@@H]3CC[C@H]4C(C)(C)[C@@H](OC(=O)[C@H]5CN(C(=O)OC(C)(C)C)CCO5)CCC45C[C@@]35CC[C@]21C)C(C)(C)O (stereo partly shown)
IC50 [1]: 1000 to 10000 nM
IC50 [2]: 1000 to 10000 nM

CCO[C@@H]([C@H]1C[C@@H](C)[C@H]2[C@H](O1)[C@H](O)[C@@]1(C)[C@@H]3CC[C@H]4C(C)(C)[C@@H](OC(=O)[C@H]5COCCN5C(=O)OC(C)(C)C)CCC45C[C@@]35CC[C@]21C)C(C)(C)O (stereo partly shown)
IC50 [1]: 1000 to 10000 nM
IC50 [2]: 1000 to 10000 nM

CCO[C@@H]([C@H]1C[C@@H](C)[C@H]2[C@H](O1)[C@H](O)[C@@]1(C)[C@@H]3CC[C@H]4C(C)(C)[C@@H](OC(=O)[C@@H]5CN(C(=O)OC(C)(C)C)CCO5)CCC45C[C@@]35CC[C@]21C)C(C)(C)O (stereo partly shown)
IC50 [1]: < 1000 nM
IC50 [2]: < 1000 nM

CCO[C@@H]([C@H]1C[C@@H](C)[C@H]2[C@H](O1)[C@H](O)[C@@]1(C)[C@@H]3CC[C@H]4C(C)(C)[C@@H](OC(=O)[C@@H]5COCCN5C(=O)OC(C)(C)C)CCC45C[C@@]35CC[C@]21C)C(C)(C)O (stereo partly shown)
IC50 [1]: 1000 to 10000 nM
IC50 [2]: 1000 to 10000 nM

CCO[C@@H]([C@H]1C[C@@H](C)[C@H]2[C@H](O1)[C@H](O)[C@@]1(C)[C@@H]3CC[C@H]4C(C)(C)[C@@H](O[C@H]5CN(C6CN(S(C)(=O)=O)C6)CCO5)CCC45C[C@@]35CC[C@]21C)C(C)(C)O (stereo partly shown)
IC50 [1]: < 1000 nM
IC50 [2]: < 1000 nM

CCO[C@@H]([C@H]1C[C@@H](C)[C@H]2[C@H](O1)[C@H](O)[C@@]1(C)[C@@H]3CC[C@H]4C(C)(C)[C@@H](OC(=O)[C@@H]5CNCCO5)CCC45C[C@@]35CC[C@]21C)C(C)(C)O (stereo partly shown)
IC50 [1]: < 1000 nM
IC50 [2]: < 1000 nM

CCO[C@@H]([C@H]1C[C@@H](C)[C@H]2[C@H](O1)[C@H](O)[C@@]1(C)[C@@H]3CC[C@H]4C(C)(C)[C@@H](OC(=O)[C@@H]5COCCN5CCOC)CCC45C[C@@]35CC[C@]21C)C(C)(C)O (stereo partly shown)
IC50 [1]: 1000 to 10000 nM
IC50 [2]: < 1000 nM

CCO[C@@H]([C@H]1C[C@@H](C)[C@H]2[C@H](O1)[C@H](O)[C@@]1(C)[C@@H]3CC[C@H]4C(C)(C)[C@@H](OC(=O)[C@H]5COCCN5C(C)C)CCC45C[C@@]35CC[C@]21C)C(C)(C)O (stereo partly shown)
IC50 [1]: 1000 to 10000 nM
IC50 [2]: < 1000 nM

CCO[C@@H]([C@H]1C[C@@H](C)[C@H]2[C@H](O1)[C@H](O)[C@@]1(C)[C@@H]3CC[C@H]4C(C)(C)[C@@H](O[C@H]5CN(C(CO)CO)CCO5)CCC45C[C@@]35CC[C@]21C)C(C)(C)O (stereo partly shown)
IC50 [1]: < 1000 nM
IC50 [2]: < 1000 nM

C[C@@H]1C[C@H]([C@H](OCCO)C(C)(C)O)O[C@H]2[C@H]1[C@@]1(C)CC[C@@]34CC35CC[C@H](O[C@H]3CN(C6CN(C7COC7)C6)CCO3)C(C)(C)[C@@H]5CC[C@H]4[C@]1(C)[C@H]2O (stereo partly shown)
IC50 [1]: 1000 to 10000 nM
IC50 [2]: 1000 to 10000 nM

CCO[C@@H]([C@H]1C[C@@H](C)[C@H]2[C@H](O1)[C@H](O)[C@@]1(C)[C@@H]3CC[C@H]4C(C)(C)C(O[C@H]5CN(CCNCCNC(=O)CCC6(C)N=N6)CCO5)CC[C@@]45CC35CC[C@]21C)C(C)(C)O (stereo partly shown)
IC50 [1]: 1000 to 10000 nM
IC50 [2]: < 1000 nM
